Like-named read-outs stand apart in the source and are kept apart here.
Molecular target: T1, 5α-Reductase (Homo sapiens, UniProt P18405)
T1 construct: host or cells: Hs68 human genital skin fibroblasts
T1 sequence (P18405 1-259): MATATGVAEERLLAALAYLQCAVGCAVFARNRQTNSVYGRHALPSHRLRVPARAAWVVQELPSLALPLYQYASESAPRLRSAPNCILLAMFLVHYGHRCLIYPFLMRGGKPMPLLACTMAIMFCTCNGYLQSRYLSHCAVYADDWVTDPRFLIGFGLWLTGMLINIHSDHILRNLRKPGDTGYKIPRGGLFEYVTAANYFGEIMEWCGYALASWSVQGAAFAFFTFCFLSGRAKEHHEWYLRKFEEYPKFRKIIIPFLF
Test: Inhibition of 5α-reductase in Hs68 human genital skin fibroblasts (conversion of labelled testosterone, TLC)
Assay type: cell-based
Experimental: Cell Culture: 5α-Reductase activity was measured using Hs68 human genital skin fibroblasts which were originally purchased from the American Type Culture Collection (Rockville, Md.). The cells were grown in Dulbecco's Modified Eagle's Medium (DMEM) plus 10% stripped fetal bovine serum which was supplemented with amphotericin B (0.25 μg/ml) and gentamicin (25.0 μg/ml) (GIBCO, Grand Island, N.Y.). The serum was stripped of endogenous steroids by incubation with dextran-coated charcoal prior to its addition to the media. The cells were maintained at 37° C. in an atmosphere of 95% air, 5% CO2 and were passaged every 7-10 days by exposure to a trypsin-EDTA solution (0.025% trypsin, 0.265 mM EDTA). Prior to the assay the Hs68 cells were harvested and plated in Falcon 6-well plates (Becton Dickinson Labware, Lincoln Park, N.J.) at a density of 6×10^4 cells per well. The cells were allowed to grow for 4-5 days or until they reached approximately 80% confluence.
Assay Method I: The substrate was prepared by dissolving unlabeled testosterone (Sigma Chemical Co., St. Louis, Mo.) in absolute ethanol followed by the addition of [7-^3 H (N)]-testosterone (23.3 Ci/mmole, New England Nuclear, Boston, Mass.). The steroid solution was taken to dryness under a stream of nitrogen and then reconstituted in media.
Assay Method II: The substrate used for this method was [^14 C]-testosterone (50 mCi/mmol) (New England Nuclear, Boston, Mass.). An aliquot of the substrate was taken to dryness under a stream of nitrogen. After the addition of 30 μl of ethanol, the testosterone was brought up in an appropriate volume of media.
Sample Preparation: The test compounds were dissolved in absolute ethanol in order to achieve the desired concentration. Subsequent dilutions of the test compounds with media were performed by the Biomek 1000 Automated Laboratory Workstation (Beckman Instruments, Palo Alto, Calif.). The existing media in the sample wells was aspirated and replaced with fresh media. Test compound was then added to the wells followed by the addition of 0.5 ml of the substrate. The volume of the incubation mixture was maintained at 2.0 ml. The final substrate concentration was 12 μM. The concentration of the test compounds ranged from 0.001-15 μM. An additional three wells (background) containing media and substrate but no cells were also included to account for the non-enzymatic metabolism of the substrate. The plates were returned to the incubator and incubated for four hours.
At the end of the incubation the media was collected and transferred to an extraction tube containing 5 ml of tolueneethanol (9:1), to which has been added 40-250 μg each of unlabeled carrier steroids (estriol, estradiol, estrone, 5α-androstan-3α,17β-diol, 5α-androstan-3β,17β-diol, 4-androstene-3,17-dione, 5α-androstan-3,17-dione, testosterone, and 5α-dihydrotestosterone) (Steraloids, Inc. Wilton, N.H.). In the case of Assay Method I the extraction tube also contained 1,000 and 10,000 dpm of [4-^14 C]-dihydrotesterone (50-60 mCi/mmol) and [4-^14 C]-testosterone (50 mCi/mmol) (New England Nuclear, Boston, Mass.), respectively. The [^14 C]-steroids were included as recovery standards to quantify procedural losses. A small amount of NaCl was also added to the extraction tubes to prevent foaming. The samples were vortexed for approximately 30 seconds and then centrifuged for 10 minutes at 500×g. The organic phase was collected and the samples taken to dryness, redissolved in dichloromethane-methanol (9:1) and were analyzed by thin layer chromatography using one of the methods described below.

[1] = 1.0 μM test compound, Hs68 cells, 12 μM testosterone, 4 h, read-out: % Inhibition

## CN1C(=O)CCC2=C1CCc1ccccc12 [Example 7, 4-methyl-1,2,3,4,5,6,-hexahydrobenzo[f]quinolin-3-one]
[1]
  inhibition at 1 µM: 48%

## O=C1CCC2=C(CCc3cc(Cl)ccc32)N1 [Example 10, 8-chloro-1,2,3,4,5,6-hexahydrobenzo[f]quinolin-3-one]
[1]
  inhibition at 1 µM: 81%

## COc1ccc2c(c1)CCC1=C2CCC(=O)N1 [Example 11, 8-methoxy-1,2,3,4,5,6-hexahydrobenzo[f]quinolin-3-one]
[1]
  inhibition at 1 µM: 20%

## O=C1CCC2=C(CCc3cccc(Br)c32)N1 [Example 16, 10-bromo-1,2,3,4,5,6-hexahydrobenzo[f]quinolin-3-one]
[1]
  inhibition at 1 µM: 14%

## O=C1CCC2=C(CCc3cccc(Cl)c32)N1 [Example 17, 10-chloro-1,2,3,4,5,6-hexahydrobenzo[f]quinolin-3-one]
[1]
  inhibition at 1 µM: 0.3%

## O=C1CCC2=C(CCc3c(F)cccc32)N1 [Example 18, 7-fluoro-1,2,3,4,5,6-hexahydrobenzo[f]quinolin-3-one]
[1]
  inhibition at 1 µM: 36%

## CN1C(=O)CCC2=C1CCc1c(F)cccc12 [Example 19, 7-fluoro-4-methyl-1,2,3,4,5,6-hexahydrobenzo[f]quinolin-3-one]
[1]
  inhibition at 1 µM: 61%

## O=C1CCC2=C(CCc3cccc(F)c32)N1 [Example 20, 10-fluoro-1,2,3,4,5,6-hexahydrobenzo[f]quinolin-3-one]
Hs68
  inhibition at 1 µM: 22%

## CN1C(=O)CCC2=C1CCc1ccc(F)cc12 [Example 21, 9-fluoro-4-methyl-1,2,3,4,5,6-hexahydrobenzo[f]quinolin-3-one]
[1]
  inhibition at 1 µM: 60%

## CN1C(=O)CCC2=C1CCc1cccc(F)c12 [Example 22, 10-fluoro-4-methyl-1,2,3,4,5,6-hexahydrobenzo[f]quinolin-3-one]
[1]
  inhibition at 1 µM: 35%

## O=C1CCC2=C(CCc3cc(F)ccc32)N1Cc1ccccc1 [Example 23, 8-fluoro-4-benzyl-1,2,3,4,5,6-hexahydrobenzo[f]quinolin-3-one]
[1]
  inhibition at 1 µM: 37%

## CCN1C(=O)CCC2=C1CCc1cc(F)ccc12 [Example 24, 8-fluoro-4-ethyl-1,2,3,4,5,6-hexahydrobenzo[f]quinolin-3-one]
[1]
  inhibition at 1 µM: 31%

## COc1ccc2c(c1)C1=C(CC2)NC(=O)CC1 [Example 26, 9-methoxy-1,2,3,4,5,6-hexahydrobenzo[f]quinolin-3-one]
[1]
  inhibition at 1 µM: 12%

## COc1cccc2c1C1=C(CC2)NC(=O)CC1 [Example 27, 10-methoxy-1,2,3,4,5,6-hexahydrobenzo[f]quinolin-3-one]
[1]
  inhibition at 1 µM: 0%

## COc1cc2c(cc1OC)C1=C(CC2)NC(=O)CC1 [Example 28, 8,9-dimethoxy-1,2,3,4,5,6-hexahydrobenzo[f]quinolin-3-one]
[1]
  inhibition at 1 µM: 33%

## Cc1cccc2c1C1=C(CC2)NC(=O)CC1 [Example 29, 10-methyl-1,2,3,4,5,6-hexahydrobenzo[f]quinolin-3-one]
[1]
  inhibition at 1 µM: 41%

Source: US5250539A, “Hexahydrobenzo[f]quinolinones” (priority 1991, dated 1993)
